Measured values published in patent EP0043274A2, “Antithrombotic treatment” (priority 1980, dated 1982).

Columns and labels:
[1] = test system: human platelet rich plasma; experiment: Platelet aggregation in platelet rich plasma, platelet aggregometer (technique of Born); format: cell-based; conditions: 1 millimole (mM); induced by optimal concentrations of ADP, collogen, epinephrine, and arachidonic acid
From the text: A present preference for purposes of evaluating an - antithrombotic effect is to withdraw samples of blood from a patient undergoing treatment and to measure platelet aggregation. One method is described in the paper by Born in Nature 194, pp. 927-929 (1962), which may be used for this purpose if desired.
That sodium bisulfite is an antiplatelet aggregatory agent is shown by using a platelet aggregometer based on the technique of Born (above cited).
(§1) Platelet rich plasma from rabbit and men was prepared by the centrugation technique referenced in Example 13. Using ADP (adosine diphosphate) as a stimulus rapid aggregation of platelets occurred. […] This procedure is described in the article by Born in Nature, Vol. 194, pgs. 927-929 (1962).
as §1, with “rabbits” for “rabbit”, “diphosphate) arachidonic acid” for “diphosphate)”, “stimulus,” for “stimulus”, “Born,” for “Born in”

rat plasma = experiment: Blood coagulation tests (PT, PTT, coagulation factors) in vitro; format: biochemical
From the text: The alkali metalbisulfites, sodium and potassium, and ammonium bisulfite are found to prolong PT and PTT in a dose-related fashion.

Substance: Sodium bisulfite
- platelet aggregation [1]: abolishes platelet aggregation
- PT and PTT (effect in words) (rat plasma; rat plasma in vitro, 0.5 mg/ml): significantly prolong
- blood coagulation factors (rat plasma; rat plasma, compared with human plasma): not as sensitive
